Source: US20250171459A1, “2-METHYL-4',5'-DIHYDROSPIRO[PIPERIDINE-4,7'-THIENO[2,3-C]PYRAN] DERIVATIVES AS INHIBITORS OF APOL1 AND METHODS OF USING SAME” (Vertex Pharmaceuticals Incorporated, priority 2022, published 2025)

The compounds below were run against T1, APOL1 (Homo sapiens, UniProt O14791) (assay: MultiTox-Fluor Multiplex Cytotoxicity Assay in tet-inducible APOL1 T-REx-HEK293 cells (cell rescue, ratio of dead to live cells)). Conditions: tet-inducible transgenic APOL1 T-REx-HEK293 cell lines, 50 ng/mL tet, 24 hours; read-out: IP50 (i.e., IC50 for cell proliferation).
T1 sequence (O14791 1-398 S342G/I384M): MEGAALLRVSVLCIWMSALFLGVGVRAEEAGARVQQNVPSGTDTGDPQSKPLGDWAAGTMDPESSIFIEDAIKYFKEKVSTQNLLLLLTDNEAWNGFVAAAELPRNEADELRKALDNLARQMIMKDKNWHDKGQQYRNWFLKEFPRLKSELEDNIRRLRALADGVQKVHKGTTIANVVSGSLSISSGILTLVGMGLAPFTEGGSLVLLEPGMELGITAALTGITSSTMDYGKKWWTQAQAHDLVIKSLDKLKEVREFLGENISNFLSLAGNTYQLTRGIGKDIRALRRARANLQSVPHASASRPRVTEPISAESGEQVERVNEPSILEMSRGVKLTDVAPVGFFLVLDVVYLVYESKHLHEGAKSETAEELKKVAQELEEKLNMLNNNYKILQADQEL
Format: cell-based
How it was run: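 T-REx-HEK293 cells with tet-inducible APOL1 were treated with compound (10 μM top, 10-point 3-fold dilution, duplicate) plus 50 ng/mL tetracycline for 24 h at 37° C, in DMEM with 2% tet-free FBS. MultiTox-Fluor protease signals gave a dead/live ratio, normalized to no tet (100% viability) and tet alone (0%).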

| SMILES | IC50 |
| --- | --- |
| C[C@H]1C[C@@]2(CCN1Cc1cn(CCS(C)(=O)=O)nn1)OCCc1cc(C(F)(F)F)sc12 [Compound 870, (2′S, 7R)-2′-methyl-1′-[[1-(2-methylsulfonylethyl)triazol-4-yl]methyl]-2-(trifluoromethyl)spiro[4,5-dihydrothieno[2,3-c]pyran-7,4′-piperidine]] | < 100 nM |
| C[C@H]1C[C@@]2(CCN1CCC(C)(C)O)OCCc1cc(CC(F)F)sc12 [Compound 620] | 100 to 500 nM |
| C[C@H]1C[C@@]2(CCN1Cc1cnc(NC(C)(C)CO)nc1)OCCc1sc(Cl)cc12 [Compound 515, 2-[[5-[[(2′S,4R)-2-chloro-2′-methyl-spiro[6,7-dihydrothieno[3,2-c]pyran-4,4′-piperidine]-1′-yl]methyl]pyrimidin-2-yl]amino]-2-methyl-propan-1-ol] | < 100 nM |
| CCc1cc2c(s1)CCO[C@@]21CCN(C[C@H]2C[C@@H](NS(=O)(=O)CC#N)C2)[C@@H](C)C1 [Compound 389] | < 100 nM |
| C[C@H]1C[C@@]2(CCN1Cc1cnn(CC3CCOCC3)c1)OCCc1c2sc(C(F)(F)F)c1CO [Compound 905] | < 100 nM |
| CCc1cc2c(s1)CCOC21CCN(Cc2cc(O)ccn2)CC1 [Compound 1152] | 500 to 1000 nM |
| CCc1cc2c(s1)CCO[C@@]21CCN(CCO)[C@@H](C)C1 [Compound 239] | 100 to 500 nM |
| CCc1cc2c(s1)C(C)COC21CCN(Cc2cn(CCS(C)(=O)=O)nn2)[C@@H](C)C1 (stereo partly shown) [Compound 535] | < 100 nM |
| CNC(=O)c1cccc(CN2CC[C@]3(C[C@@H]2C)OC[C@H](O)c2cc(Cl)sc23)c1 [Compound 812] | 100 to 500 nM |
| CCc1cc2c(s1)CCO[C@@]21CCN(CC2CN(C(=O)c3cnn(C)c3)C2)[C@@H](C)C1 [Compound 429] | < 100 nM |
| CCc1cc2c(s1)CCO[C@@]21CCN(C[C@H]2C[C@@H](NC(=O)c3ccncc3C)C2)[C@@H](C)C1 [Compound 340] | < 100 nM |
| CCc1cc2c(s1)CCO[C@@]21CCN(Cc2cn(C[C@H]3C[C@H](O)C3)nn2)[C@@H](C)C1 [Compound 142] | 100 to 500 nM |
| C[C@@H]1C[C@]2(CCN1Cc1cn(CC(O)C(C)(C)O)nn1)OCCc1cc(Cl)sc12 (stereo in doubt) [Compound 626, 1-(4-(((2R,4S)-2′-chloro-2-methyl-4′,5′-dihydrospiro[piperidine-4,7′-thieno[2,3-c]pyran]-1-yl)methyl)-1H-1,2,3-triazol-1-yl)-3-methylbutane-2,3-diol] | < 100 nM |
| C[C@H]1C[C@@]2(CCN1Cc1cnn(C[C@H](O)C(=O)NC3CC3)c1)OC[C@@H](O)c1cc(C(F)(F)F)sc12 [Compound 999] | < 100 nM |
| C[C@H]1C[C@@]2(CCN1Cc1cnn(CCS(C)(=O)=O)c1)OCC(O)c1cc(C(F)(F)F)sc12 (stereo partly shown) [Compound 880] | < 100 nM |
| CCc1cc2c(s1)CCOC21CCN(Cc2cn(C3CC(F)(F)C3)nn2)CC1 [Compound 1105] | 500 to 1000 nM |
| CC(=O)N[C@H]1C[C@@H](CN2CC[C@]3(C[C@@H]2C)OCCc2cc(CC(F)F)sc23)C1 [Compound 558] | < 100 nM |
| C[C@H]1C[C@@]2(CCN1Cc1cnn(C)c1)OCC(O)c1cc(Cl)sc12 (single isomer, unassigned) [Compound 820] | < 100 nM |
| C[C@H]1C[C@@]2(CCN1Cc1cc[nH]n1)OCCc1cc(CC(F)F)sc12 [Compound 562] | < 100 nM |
| C[C@H]1C[C@@]2(CCN1Cc1cn(CC(O)C(C)(C)O)nn1)OCCc1cc(CC(F)F)sc12 (stereo partly shown) [Compound 548] | < 100 nM |
| CCc1cc2c(s1)CCO[C@@]21CCN(Cc2cn(C3CC4(C3)CS(=O)(=O)C4)nn2)[C@@H](C)C1 [Compound 25] | < 100 nM |
| CCc1cc2c(s1)CCOC21CCN(Cc2ccc(N3C[C@@H](O)[C@H](O)C3)nc2)CC1 [Compound 1066, (3R,4R)-1-(5-((2′-ethyl-6′,7′-dihydrospiro[piperidine-4,4′-thieno[3,2-c]pyran]-1-yl)methyl)pyridin-2-yl)pyrrolidine-3,4-diol] | < 100 nM |
| CCc1cc2c(s1)CCO[C@@]21CCN(CC(O)c2ccccc2Cl)[C@@H](C)C1 (stereo partly shown) [Compound 254] | < 100 nM |
| CCc1cc2c(s1)CCO[C@@]21CCN(C[C@H]2C[C@@H](NS(=O)(=O)CCCO)C2)[C@@H](C)C1 [Compound 417] | 500 to 1000 nM |
| C[C@H]1C[C@@]2(CCN1Cc1cnn(CC(O)C3(O)CCOC3)c1)OC[C@@H](O)c1cc(C(F)(F)F)sc12 (stereo partly shown) [Compound 971] | < 100 nM |
| C[C@H]1C[C@@]2(CCN1Cc1cnn(CC3(O)CCOCC3)c1)OCCc1c2sc(C(F)(F)F)c1CO [Compound 943, 4-[[4-[[(2′S, 7R)-3-(hydroxymethyl)-2′-methyl-2-(trifluoromethyl)spiro[4,5-dihydrothieno[2,3-c]pyran-7,4′-piperidine]-1′-yl]methyl]pyrazol-1-yl]methyl]tetrahydropyran-4-ol] | < 100 nM |

| SMILES | IC50 |
| --- | --- |
| Cn1cc(CN2CCC3(CC2)OCC2(CC2)c2sc(Cl)cc23)cn1 [Compound 1179, 2′-chloro-1″-[(1-methyl-1H-pyrazol-4-yl)methyl]-6′H-dispiro[cyclopropane-1,7′-thieno[3,2-c]pyran-4′,4″-piperidine]] | < 100 nM |
| COc1ncc(CN2CC[C@]3(C[C@@H]2C)OCCc2c3sc(Cl)c2CO)cn1 [Compound 729] | < 100 nM |
| C[C@H]1C[C@@]2(CCN1Cc1cn(CC(O)C(C)(C)O)nn1)OC[C@@](O)(C(F)F)c1cc(Cl)sc12 (stereo partly drawn) [Compound 836, 1-[4-[[(2′S,4R,7R)-2-chloro-4-(difluoromethyl)-4-hydroxy-2′-methyl-spiro[5H-thieno[2,3-c]pyran-7,4′-piperidine]-1′-yl]methyl]triazol-1-yl]-3-methyl-butane-2,3-diol] | < 100 nM |
| CCc1cc2c(s1)CCO[C@@]21CCN(CC(=O)OC)[C@@H](C)C1 [Compound 283] | 500 to 1000 nM |
| CCc1cc2c(s1)CCO[C@@]21CCN(C[C@H]2C[C@@H](NS(=O)(=O)C(F)(F)F)C2)[C@@H](C)C1 [Compound 411] | 100 to 500 nM |
| CCc1cc2c(s1)CCO[C@@]21CCN(Cc2cn([C@@H]3CCN(C(=O)OC(C)(C)C)C3)nn2)[C@@H](C)C1 [Compound 15, tert-butyl (3R)-3-[4-[[(2′S,4R)-2-ethyl-2′-methyl-spiro[6,7-dihydrothieno[3,2-c]pyran-4,4′-piperidine]-1′-yl]methyl]triazol-1-yl]pyrrolidine-1-carboxylate] | 100 to 500 nM |
| CCc1cc2c(s1)CCO[C@@]21CCN(Cc2cn(C3C[C@H](CO)NC3=O)nn2)[C@@H](C)C1 (stereo partly shown) [Compound 196] | 100 to 500 nM |
| C[C@H]1C[C@@]2(CCN1C1COCC1O)OCCc1cc(CC(F)F)sc12 (stereo partly shown) [Compound 597] | < 100 nM |
| CCc1cc2c(s1)CCO[C@@]21CCN(C[C@H]2C[C@@H](NC(=O)CO)C2)[C@@H](C)C1 [Compound 351] | 100 to 500 nM |
| CCc1cc2c(s1)CCOC21CCN(Cc2cn(CC(C)(O)COC)nn2)C(C)C1 (stereo not shown) [Compound 84] | < 100 nM |
| CCc1cc2c(s1)CCO[C@@]21CCN(Cc2cn(CC3(OCCO)CCC3)nn2)[C@@H](C)C1 [Compound 104] | 100 to 500 nM |
| CCc1cc2c(s1)CCO[C@@]21CCN(C[C@H]2C[C@@H](NC(=O)OCC3CCCCC3)C2)[C@@H](C)C1 [Compound 383] | 100 to 500 nM |
| CNS(=O)(=O)CCn1cc(CN2CC[C@]3(C[C@@H]2C)OCCc2c3sc(C(F)(F)F)c2CO)cn1 [Compound 916] | < 100 nM |
| CCc1cc2c(s1)CCO[C@@]21CCN(C[C@H]2C[C@@H](NC(=O)C3(C(N)=O)CC3)C2)[C@@H](C)C1 [Compound 350] | 100 to 500 nM |
| C[C@H]1C[C@@]2(CCN1CCCn1cccn1)OC[C@H](O)c1cc(Cl)sc12 [Compound 815] | 500 to 1000 nM |
| CCc1cc2c(s1)CCOC21CCN(Cc2c[nH]cn2)CC1 [Compound 1141] | 500 to 1000 nM |
| CCc1cc2c(s1)CCO[C@@]21CCN(Cc2cn(CC(O)(CC)CCCO)nn2)[C@@H](C)C1 (stereo partly shown) [Compound 169] | < 100 nM |
| CCc1cc2c(s1)CCO[C@@]21CCN(Cc2cn(CS(C)(=O)=O)nn2)[C@@H](C)C1 [Compound 13, (2′S)-2-ethyl-2′-methyl-1′-[[1-(methylsulfonylmethyl)triazol-4-yl]methyl]spiro[6,7-dihydrothieno[3,2-c]pyran-4,4′-piperidine]] | < 100 nM |
| CCc1cc2c(s1)CCO[C@@]21CCN(C[C@H]2C[C@@H](NS(=O)(=O)c3cnccc3Cl)C2)[C@@H](C)C1 [Compound 412] | < 100 nM |
| CCc1cc2c(s1)CCOC21CCN(Cc2cn(CC(COC)OC)nn2)C(C)C1 (stereo not shown) [Compound 137] | < 100 nM |
| C[C@H]1C[C@@]2(CCN1Cc1cncc(F)c1)OC[C@H](O)c1cc(Cl)sc12 [Compound 784] | 100 to 500 nM |
| CCc1cc2c(s1)CCO[C@@]21CCN(CC2CN(C(=O)c3ncon3)C2)[C@@H](C)C1 [Compound 474] | < 100 nM |
| C[C@H]1C[C@@]2(CCN1Cc1ccccc1F)OCCc1cc(Cl)sc12 [Compound 682] | 100 to 500 nM |
| C[C@H]1C[C@@]2(CCN1CCO)OCCc1sc(Cl)cc12 [Compound 506] | 100 to 500 nM |
| CCOC1CO[C@@]2(CCN(Cc3cnn(CCS(C)(=O)=O)c3)[C@@H](C)C2)c2sc(Cl)cc21 (stereo partly shown) [Compound 844] | 100 to 500 nM |
| C[C@H]1C[C@@]2(CCN1CC(O)c1ccccc1)OCCc1cc(CC(F)F)sc12 (stereo partly drawn) [Compound 594, 2-[(2′S, 7R)-2-(2,2-difluoroethyl)-2′-methyl-spiro[4,5-dihydrothieno[2,3-c]pyran-7,4′-piperidine]-1′-yl]-1-phenyl-ethanol] | < 100 nM |
